Among the data in US7964607B2, “Pyrazolo[3,4-d]pyrimidine compounds” (Pfizer Inc., priority 2007, dated 2011) are IC50 values, retold here.

The target in one assay is T1, human recombinant PDE9 enzyme (Homo sapiens, UniProt O76083).
T1 construct: made in house; host or cells: SF-9 insect cells
T1 sequence (O76083 whole entry): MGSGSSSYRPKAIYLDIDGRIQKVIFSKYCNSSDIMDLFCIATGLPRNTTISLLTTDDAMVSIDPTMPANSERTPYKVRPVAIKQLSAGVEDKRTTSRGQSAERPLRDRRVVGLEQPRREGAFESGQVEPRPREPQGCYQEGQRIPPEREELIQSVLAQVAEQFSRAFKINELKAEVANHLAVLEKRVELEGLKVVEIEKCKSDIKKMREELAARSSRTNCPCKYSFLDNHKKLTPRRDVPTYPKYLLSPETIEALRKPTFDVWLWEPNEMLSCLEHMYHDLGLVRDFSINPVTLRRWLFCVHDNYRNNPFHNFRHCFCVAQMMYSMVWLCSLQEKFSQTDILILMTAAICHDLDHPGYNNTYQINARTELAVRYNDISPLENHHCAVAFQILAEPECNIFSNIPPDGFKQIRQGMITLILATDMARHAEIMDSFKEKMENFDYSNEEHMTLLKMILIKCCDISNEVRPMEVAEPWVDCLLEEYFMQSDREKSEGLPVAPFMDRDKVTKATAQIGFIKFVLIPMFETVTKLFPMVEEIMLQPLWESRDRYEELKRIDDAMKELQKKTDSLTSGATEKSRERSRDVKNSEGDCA
Briefly: Phosphodiesterase 9 (PDE9) inhibitory activity, Scintillation Proximity (SPA) assay. Type of assay: biochemical.
Conditions: not given
A digest of the protocol: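 Scintillation proximity read-out of [3H]cGMP hydrolysis after 30 min at room temperature, with enzyme addition starting the reaction. The enzyme was human recombinant PDE9 expressed in SF-9 cells, titrated to keep substrate turnover at 20% or less. Compound wells held 2% DMSO final, and background was defined with excess PDE inhibitor.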
For `C[C@@H]1CN(Cc2cccc(F)c2)C[C@H]1c1nc2c(cnn2C2CCOCC2)c(=O)[nH]1` [Example 89, 6-[(3S,4S)-1-(3-fluorobenzyl)-4-methylpyrrolidin-3-yl]-1-(tetrahydro-2H-pyran-4-yl)-1,5-dihydro-4H-pyrazolo[3,4-d]pyrimidin-4-one], the 50% inhibitory concentration (IC50) was determined as 1.7 nM.

Staying with this assay, now noted: human recombinant PDE9 from SF-9 cells; 50 nM [3H]cGMP; room temperature, 30 min; Examples 3-114; read-out: G5678A (U): IC50.
As to `C[C@@H]1CN(Cc2ccc(C(F)(F)F)nc2)C[C@H]1c1nc2c(cnn2C2CCOCC2)c(=O)[nH]1` [Example 80, 6-[(3S,4S)-4-methyl-1-{[6-(trifluoromethyl)pyridin-3-yl]methyl}pyrrolidin-3-yl]-1-(tetrahydro-2H-pyran-4-yl)-1,5-dihydro-4H-pyrazolo[3,4-d]pyrimidin-4-one], the concentration for half-maximal inhibition (IC50) amounted to 3.72 nM. The same measure, in the same setting: as for `C[C@@H]1CN(Cc2nc3cnccc3n2C)C[C@H]1c1nc2c(cnn2C2CCOCC2)c(=O)[nH]1` [Example 81, 6-{(3S,4S)-4-methyl-1-[(1-methyl-1H-imidazo[4,5-c]pyridin-2-yl)methyl]pyrrolidin-3-yl}-1-(tetrahydro-2H-pyran-4-yl)-1,5-dihydro-4H-pyrazolo[3,4-d]pyrimidin-4-one], the figure is 2.92 nM; as for `Cc1cc(CN2C[C@@H](C)[C@H](c3nc4c(cnn4C4CCOCC4)c(=O)[nH]3)C2)n(C)n1` [Example 82, 6-{(3S,4S)-1-[(1,3-dimethyl-1H-pyrazolo-5-yl)methyl]-4-methylpyrrolidin-3-yl}-1-(tetrahydro-2H-pyran-4-yl)-1,5-dihydro-4H-pyrazolo[3,4-d]pyrimidin-4-one], 5.18 nM; as for `C[C@@H]1CN(Cc2ccc3nsnc3c2)C[C@H]1c1nc2c(cnn2C2CCOCC2)c(=O)[nH]1` [Example 84, 6-[(3S,4S)-1-(2,1,3-benzothiadiazol-5-ylmethyl)-4-methylpyrrolidin-3-yl]-1-(tetrahydro-2H-pyran-4-yl)-1,5-dihydro-4H-pyrazolo[3,4-d]pyrimidin-4-one], 1.87 nM.

For the molecule `C[C@@H]1CN(Cc2cnc3ccccc3n2)C[C@H]1c1nc2c(cnn2C2CCOCC2)c(=O)[nH]1` [Example 85], the IC50 turned out to be 0.903 nM.

Consider `C[C@@H]1CN(Cc2ccnc3ccccc23)C[C@H]1c1nc2c(cnn2C2CCOCC2)c(=O)[nH]1` [Example 86, 6-[(3S,4S)-4-methyl-1-(quinolin-4-ylmethyl)pyrrolidin-3-yl]-1-(tetrahydro-2H-pyran-4-yl)-1,5-dihydro-4H-pyrazolo[3,4-d]pyrimidin-4-one], for which the IC50 came out at 1.44 nM. Still for that read-out and setting: the value for `Cc1nn(C2CCOCC2)c2nc([C@@H]3CN(Cc4ccccc4)C[C@H]3C)[nH]c(=O)c12` [Example 88, 6-[(3S,4S)-1-benzyl-4-methylpyrrolidin-3-yl]-3-methyl-1-(tetrahydro-2H-pyran-4-yl)-1,5-dihydro-4H-pyrazolo[3,4-d]pyrimidin-4-one] was 17.9 nM; that for `C[C@@H]1CN(Cc2cc(F)cc(F)c2)C[C@H]1c1nc2c(cnn2C2CCOCC2)c(=O)[nH]1` [Example 90, 6-[(3S,4S)-1-(3,5-difluorobenzyl)-4-methylpyrrolidin-3-yl]-1-(tetrahydro-2H-pyran-4-yl)-1,5-dihydro-4H-pyrazolo[3,4-d]pyrimidin-4-one] was 1.41 nM.

With `C[C@@H]1CN(Cc2ccc(C(F)(F)F)cc2)C[C@H]1c1nc2c(cnn2C2CCOCC2)c(=O)[nH]1` [Example 91, 6-{(3S,4S)-4-methyl-1-[4-(trifluoromethyl)benzyl]pyrrolidin-3-yl}-1-(tetrahydro-2H-pyran-4-yl)-1,5-dihydro-4H-pyrazolo[3,4-d]pyrimidin-4-one], the IC50 was 6.69 nM. The same measure, in the same setting: the value for `Cc1nn(C2CCOCC2)c2nc([C@@H]3CN(Cc4cccnc4)C[C@H]3C)[nH]c(=O)c12` [Example 92, 3-methyl-6-[(3S,4S)-4-methyl-1-(pyridin-3-ylmethyl)pyrrolidin-3-yl]-1-(tetrahydro-2H-pyran-4-yl)-1,5-dihydro-4H-pyrazolo[3,4-d]pyrimidin-4-one] was 23.3 nM.

For orientation: IC50 means the concentration that gives 50% inhibition.
